A short description of data set [1]: Metabolic stability in mouse liver microsomes. The format is in vitro ADME, CD-1 mice. The essentials:
(§1)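 Compound incubated at 37 °C with 0.5 mg protein/mL liver microsomes plus cofactors in PBS, sampled at 0–60 min, quenched with cold acetonitrile and quantified by HPLC-MS/MS (n=3). Half-life and Clint (μL/min/mg) come from the slope of ln(% remaining) versus time.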
(Liver microsomes are vesicles of endoplasmic reticulum, rich in cytochrome P450 enzymes.)

Data set [2] has as its target T1, RORγt (RORγ-LBD chimeric receptor) (Homo sapiens, UniProt P51449).
T1 construct: host or cells: HEK293T
T1 sequence (P51449 269-508 limits assumed): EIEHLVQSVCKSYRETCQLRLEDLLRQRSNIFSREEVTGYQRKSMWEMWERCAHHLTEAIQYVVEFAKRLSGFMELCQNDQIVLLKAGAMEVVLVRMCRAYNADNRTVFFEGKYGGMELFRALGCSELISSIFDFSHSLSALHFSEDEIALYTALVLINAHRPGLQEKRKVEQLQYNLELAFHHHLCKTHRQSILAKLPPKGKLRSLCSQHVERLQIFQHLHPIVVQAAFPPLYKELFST
As to the kind of experiment: Luciferase reporter gene assay of RORγt agonistic activity in HEK293T cells. It is filed as cell-based. Further details: Emax: dose or concentration left out as unconfirmed. The gist of the method:
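EC50 derived from % activity (relative to positive control and vehicle) versus log concentration, using luciferase luminescence in transfected HEK293T cells. The cells carried a RORγ-LBD/GAL4 chimera plus a GAL4-promoter reporter; compounds were 3-fold serially diluted, 10 points from a 10 mM DMSO stock.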
A general note: In a reporter assay the amount or activity of a reporter protein is the signal.

A short description of data set [3]: Metabolic stability in human liver microsomes. The format is in vitro ADME. The essentials:
as §1

A short description of data set [4]: Pharmacokinetic (PK) assay in mice. As to conditions: CD-1 mice. The format is in vivo. The gist of the method:
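Plasma concentrations were quantified by UPLC-MS/MS in EDTA-K2 plasma collected from the saphenous vein over 0–24 h, and PK parameters were derived from them. Two groups of 3 CD-1 mice were used: 5 mg/kg oral gavage (DMSO/1% methylcellulose 1:99) and 1 mg/kg intravenous (5% DMSO/40% PEG400/55% (20% 3-CD)).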

One compound from patent US20220402867A1, “SULFO-SUBSTITUTED BIARYL COMPOUND OR SALT THEREOF, PREPARATION METHOD THEREFOR, AND USE THEREOF” (Shanghai Litedd Co., Ltd., priority 2019, published 2022) can be followed below.

Take `COCC(C(=O)Nc1cc(Cl)c(-c2ccc(S(=O)(=O)C3CC3)cc2)c(Cl)c1)c1ccc(S(C)(=O)=O)cc1` (centres unmarked) [Example 20, N-(2,6-Dichloro-4′-(cyclopropylsulfonyl)-[1,1′-biphenyl]-4-yl)-3-methoxy-2-(4-(methylsulfonyl)phenyl)propionamide]: the “% Remaining (T = 60 min)” value in data set [1] (60 min) is on record as 75.50%; in data set [3] (60 min), 53.9%. Moreover, the half-life – broadly, the time needed for the level to fall by half in the phase considered – in data set [1] (CD-1) was 2.21 h; in data set [3] it was 1.34 h; in data set [4] (mouse, plasma, IV 1 mg/kg), 4.85 h; in data set [4] (mouse, plasma, Po 5 mg/kg), 6.95 h. The microsomal CLint (in general, the capacity of the preparation to metabolise the compound, expressed as a volume cleared per time) was 10.5 µL/min/mg in data set [1] (CD-1, 0.5 mg protein/mL) and 17.3 µL/min/mg in data set [3] (0.5 mg protein/mL). For the same compound, the EC50 (in general, the concentration at which the effect is half-maximal) in data set [2] (HEK293T, GAL4 luciferase reporter, read-out: EC50) stood at 81 nM. Moreover, in data set [2] (HEK-293T), the Emax – broadly, the greatest response seen or fitted, relative to the assay's reference – came out at 63.5%. For the same compound, the CL_obs in data set [4] (IV 1 mg/kg, values marked **) was 1.98** mL/min/kg. Also, the exposure AUC(0-t) (as a rule, exposure summed from dosing to a finite time, without extrapolation to infinity) is 8280 ng·h/mL in data set [4] (mouse, plasma, IV 1 mg/kg) and 21600 ng·h/mL in data set [4] (mouse, plasma, Po 5 mg/kg). Moreover, the Cmax (commonly the peak of the concentration-time curve) is 1160 ng/mL in data set [4] (mouse, plasma, IV 1 mg/kg) and 1660 ng/mL in data set [4] (mouse, plasma, Po 5 mg/kg). Also, in data set [4] (mouse, plasma, IV 1 mg/kg, values marked *, read-out: Vss), the Vd came to 0.75 L/kg. Further, the bioavailability (commonly the share of a dose that reaches the circulation, judged against a reference dose that is usually intravenous) in data set [4] (mouse, plasma, Po 5 mg/kg vs IV 1 mg/kg) was determined as 57.3%.
